Source: patent US12528815B2, “5-amino-8-(4-pyridyl)-[1,2,4]triazolo[4,3-c]pyrimidin-3-one compounds for use against cancer” (Nxera Pharma UK Limited, priority 2020, dated 2026)

Columns and labels:
human CB1 receptor = molecular target: T1, human CB1 receptor (Homo sapiens, UniProt P21554); assay: CB1 receptor antagonism, agonist-induced cAMP modulation (HTRF) in transfected CHO cells; format: cell-based; conditions: read-out: Antag IC50
T1 construct: expressed in transfected cells; host or cells: CHO cells
Protocol: Receptor antagonism: Evaluation of the antagonist activity of compounds at the human CB1 receptor expressed in transfected CHO cells, determined by measuring their effects on agonist-induced cAMP modulation using the HTRF detection method.
Thereafter, the reference agonist CP 55940 and the adenylyl cyclase activator NKH 477 are added at respective final concentrations of 3 nM and 3 μM.
For basal control measurements, CP 55940 is omitted from the wells containing 3 μM AM 281.
Following 20 min incubation at 37° C., the cells are lysed and the fluorescence acceptor (D2-labeled cAMP) and fluorescence donor (anti-cAMP antibody labeled with europium cryptate) are added.
After 60 min at room temperature, the fluorescence transfer is measured at λex=337 nm and λem=620 and 665 nm using a microplate reader (Rubystar, BMG). The cAMP concentration is determined by dividing the signal measured at 665 nm by that measured at 620 nm (ratio).
The standard reference antagonist is AM 281, which is tested in each experiment at several concentrations to generate a concentration-response curve from which its IC50 value is calculated.

[1] = molecular target: T2, human adenosine A2A receptor (Homo sapiens, UniProt P29274); assay: Inhibition binding assay, human adenosine A2A receptor membranes, [3H]ZM241385; conditions: 1 nM [3H]ZM241385, HEK293-hA2A membranes, 25° C., 1 h; IC50 converted to Ki with Cheng-Prusoff; read-out: A2A pKi (converted)
T2 construct: expressed in transfected cells; host or cells: HEK293 cells infected with BacMam
Procedure, shortened: (§1)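 Membranes from BacMam-infected HEK293 cells (0.2 μg A2A, 1.4 μg A1) incubated 1 h at 25° C with test compound and 1 nM [3H]ZM241385 (A2A; 50 mM Tris-HCl pH 7.4) or [3H]DPCPX (A1; plus 100 mM NaCl, 10 mM MgCl2). Nonspecific: 1 μM CGS15943 or DPCPX. Filtration, scintillation; IC50 converted to Ki via Cheng-Prusoff.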

[2] = molecular target: T3, human adenosine A1 receptor (Homo sapiens, UniProt P30542); assay: Inhibition binding assay, human adenosine A1 receptor membranes, [3H]DPCPX; conditions: 1 nM [3H]DPCPX, 25° C., 1 h; IC50 converted to Ki with Cheng-Prusoff; read-out: A1 pKi (converted)
T3 construct: expressed in transfected cells; host or cells: HEK293 cells infected with BacMam (the same paragraph also labels the preparation CHO-hA1)
T3 sequence (P30542 1-326): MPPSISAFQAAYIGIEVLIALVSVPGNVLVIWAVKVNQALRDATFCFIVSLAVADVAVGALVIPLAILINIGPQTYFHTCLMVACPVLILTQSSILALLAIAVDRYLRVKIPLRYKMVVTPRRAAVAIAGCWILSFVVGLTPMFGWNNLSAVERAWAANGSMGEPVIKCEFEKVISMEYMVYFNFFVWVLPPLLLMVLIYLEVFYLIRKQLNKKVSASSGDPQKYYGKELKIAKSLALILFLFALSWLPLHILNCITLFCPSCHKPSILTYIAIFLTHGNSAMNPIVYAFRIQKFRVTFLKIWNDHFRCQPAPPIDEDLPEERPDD
Procedure, shortened: as §1

T2 sequence (P29274 whole entry): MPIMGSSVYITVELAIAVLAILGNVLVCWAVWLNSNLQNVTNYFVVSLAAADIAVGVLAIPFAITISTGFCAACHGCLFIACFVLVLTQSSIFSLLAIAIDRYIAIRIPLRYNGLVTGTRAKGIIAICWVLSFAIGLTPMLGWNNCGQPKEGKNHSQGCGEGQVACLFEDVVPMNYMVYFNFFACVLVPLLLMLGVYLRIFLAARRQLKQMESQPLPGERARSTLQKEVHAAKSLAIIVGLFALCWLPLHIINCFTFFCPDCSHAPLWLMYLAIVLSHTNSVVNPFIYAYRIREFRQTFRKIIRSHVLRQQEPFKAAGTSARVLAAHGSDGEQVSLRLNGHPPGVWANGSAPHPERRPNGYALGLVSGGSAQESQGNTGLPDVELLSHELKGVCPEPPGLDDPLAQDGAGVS
T1 sequence (P21554 whole entry): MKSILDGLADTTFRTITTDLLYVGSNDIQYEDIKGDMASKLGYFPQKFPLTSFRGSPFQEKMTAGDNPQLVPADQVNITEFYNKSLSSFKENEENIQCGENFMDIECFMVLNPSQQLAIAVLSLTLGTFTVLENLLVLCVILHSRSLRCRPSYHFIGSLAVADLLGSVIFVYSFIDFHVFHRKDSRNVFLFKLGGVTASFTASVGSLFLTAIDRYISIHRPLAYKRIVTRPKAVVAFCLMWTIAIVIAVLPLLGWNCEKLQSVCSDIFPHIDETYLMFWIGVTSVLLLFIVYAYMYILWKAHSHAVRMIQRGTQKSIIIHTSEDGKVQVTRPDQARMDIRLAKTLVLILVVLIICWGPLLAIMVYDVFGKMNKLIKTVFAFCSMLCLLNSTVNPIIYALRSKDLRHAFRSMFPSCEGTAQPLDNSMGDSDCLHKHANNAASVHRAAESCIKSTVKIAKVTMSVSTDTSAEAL

Compound | IC50 (human CB1 receptor) [nM] | Ki [1] [nM] | Ki [2] [nM]
Cc1cc(-c2c(-c3nc(C)cs3)nc(N)n3c(=O)n(CCC(F)(F)F)nc23)cc(C)n1 [Example 2-44, 5-amino-8-(2,6-dimethyl-4-pyridyl)-7-(4-methylthiazol-2-yl)-2-(3,3,3-trifluoropropyl)-[1,2,4]triazolo[4,3-c]pyrimidin-3-one] | > 100000 | 20 | –
Cc1cc(-c2c(Cl)nc(N)n3c(=O)n(CCC(F)(F)F)nc23)cc(C)n1 [Example 3-5, 5-amino-7-chloro-8-(2,6-dimethyl-4-pyridyl)-2-(3,3,3-trifluoropropyl)-[1,2,4]triazolo[4,3-c]pyrimidin-3-one] | – | 631 | > 3160
COC(=O)c1nc(N)n2c(=O)n(CCC(F)(F)F)nc2c1-c1cc(C)nc(C)c1 [Example 3-6, methyl 5-amino-8-(2,6-dimethyl-4-pyridyl)-3-oxo-2-(3,3,3-trifluoropropyl)-[1,2,4]triazolo[4,3-c]pyrimidine-7-carboxylate] | – | 200 | > 3160
CC#Cc1nc(N)n2c(=O)n(CCC(F)(F)F)nc2c1-c1cc(C)nc(C)c1 [Example 3-7, 5-amino-8-(2,6-dimethyl-4-pyridyl)-7-prop-1-ynyl-2-(3,3,3-trifluoropropyl)-[1,2,4]triazolo[4,3-c]pyrimidin-3-one] | – | 31.6 | > 3980
COc1nc(N)n2c(=O)n(CCC(F)(F)F)nc2c1-c1cc(C)nc(C)c1 [Example 3-8, 5-amino-8-(2,6-dimethyl-4-pyridyl)-7-methoxy-2-(3,3,3-trifluoropropyl)-[1,2,4]triazolo[4,3-c]pyrimidin-3-one] | – | 1260 | > 3160
C/C=C(/C)c1nc(N)n2c(=O)n(CCC(F)(F)F)nc2c1-c1cc(C)nc(C)c1 [Example 3-9, 5-amino-8-(2,6-dimethyl-4-pyridyl)-7-[(Z)-1-methylprop-1-enyl]-2-(3,3,3-trifluoropropyl)-[1,2,4]triazolo[4,3-c]pyrimidin-3-one] | – | 398 | > 3160
C/C=C(\C)c1nc(N)n2c(=O)n(CCC(F)(F)F)nc2c1-c1cc(C)nc(C)c1 [Example 3-10, 5-amino-8-(2,6-dimethyl-4-pyridyl)-7-[(E)-1-methylprop-1-enyl]-2-(3,3,3-trifluoropropyl)-[1,2,4]triazolo[4,3-c]pyrimidin-3-one] | – | 10 | > 3160

The remaining lines, values ahead:

IC50 (human CB1 receptor) [nM] | Ki [1] [nM] | Ki [2] [nM] | Compound
3200 | 3.98 | 398 | COc1nc(Cn2nc3c(-c4cc(C)nc(C)c4)c(-c4ccccc4)nc(N)n3c2=O)ccc1F [Example 1-7, 5-amino-8-(2,6-dimethyl-4-pyridyl)-2-[(5-fluoro-6-methoxy-2-pyridyl)methyl]-7-phenyl-[1,2,4]triazolo[4,3-c]pyrimidin-3-one]
> 100000 | 0.794 | 126 | Cc1cc(-c2c(-c3ccccc3)nc(N)n3c(=O)n(Cc4ccc(F)c(N)n4)nc23)cc(CO)n1 [Example 1-45, 5-amino-2-[(6-amino-5-fluoro-2-pyridyl)methyl]-8-[2-(hydroxymethyl)-6-methyl-4-pyridyl]-7-phenyl-[1,2,4]triazolo[4,3-c]pyrimidin-3-one]
> 100000 | 10 | 251 | COCCn1nc2c(-c3cc(C)nc(C)c3)c(-c3ccccc3)nc(N)n2c1=O [Example 2-10, 5-amino-8-(2,6-dimethyl-4-pyridyl)-2-(2-methoxyethyl)-7-phenyl-[1,2,4]triazolo[4,3-c]pyrimidin-3-one]
> 100000 | 6.31 | – | CCN(C)CCn1nc2c(-c3cc(C)nc(C)c3)c(-c3ccccc3)nc(N)n2c1=O [Example 2-18, 5-amino-8-(2,6-dimethyl-4-pyridyl)-2-[2-[ethyl(methyl)amino]ethyl]-7-phenyl-[1,2,4]triazolo[4,3-c]pyrimidin-3-one]
> 100000 | 10 | – | Cc1cc(-c2c(-c3ccccc3)nc(N)n3c(=O)n(CC(=O)N(C)C)nc23)cc(C)n1 [Example 2-25, 2-[5-amino-8-(2,6-dimethyl-4-pyridyl)-3-oxo-7-phenyl-[1,2,4]triazolo[4,3-c]pyrimidin-2-yl]-N,N-dimethyl-acetamide]
